# Laboratory results from patent publication US12011444B2, “N-substituted indole derivatives as PGE2 receptor modulators” (Idorsia Pharmaceuticals Ltd, priority 2015, dated 2024).
# Assays:
# PTRGER4 (EP4) = PTRGER4 (EP4) (Homo sapiens (Human), UniProt P35408); assay: hEP4 b-arrestin assay (PathHunter HEK 293 PTGER4 b-arrestin cells); format: cell-based; conditions: hEP4 b-arrestin assay (values without asterisk)
# Procedure, shortened: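 Stably transfected HEK293 cells carrying EP4–ProLink and β-arrestin 2–EA (β-gal fragment complementation), pre-incubated with compound 15 min at 37 °C, then stimulated with PGE2 (20 nM final) for 120 min at 37 °C. Chemiluminescence read after 1 h detection reagent at room temperature; activity per concentration expressed as percent of DMSO control.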
# PTGER2 (EP2) = PTGER2 (EP2) (Homo sapiens (Human), UniProt P43116); assay: hEP2 b-arrestin assay (PathHunter HEK 293 PTGER2 b-arrestin cells); format: cell-based; conditions: hEP2 b-arrestin assay (values without asterisk)
# Sequence of PTGER2 (EP2) (P43116 whole entry, the tested form may be a part): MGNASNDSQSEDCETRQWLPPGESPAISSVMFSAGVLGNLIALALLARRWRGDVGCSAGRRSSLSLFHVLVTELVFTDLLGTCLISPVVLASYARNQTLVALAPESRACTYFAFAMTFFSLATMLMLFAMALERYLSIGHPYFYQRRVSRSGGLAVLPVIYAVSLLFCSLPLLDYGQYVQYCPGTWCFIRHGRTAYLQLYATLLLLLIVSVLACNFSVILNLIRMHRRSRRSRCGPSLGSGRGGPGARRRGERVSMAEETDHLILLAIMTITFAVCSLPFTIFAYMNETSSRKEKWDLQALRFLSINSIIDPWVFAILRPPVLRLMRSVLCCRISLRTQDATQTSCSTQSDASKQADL
# Procedure, shortened: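 HEK293 cells expressing ProLink-tagged EP2 and EA-fused β-arrestin 2 (enzyme fragment complementation) were seeded 24 h, pre-incubated with compound 15 min at 37 °C, then stimulated with 5 μM PGE2 (final) for 120 min.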
# Sequence of PTRGER4 (EP4) (P35408 whole entry, looked up, the tested form may be a part): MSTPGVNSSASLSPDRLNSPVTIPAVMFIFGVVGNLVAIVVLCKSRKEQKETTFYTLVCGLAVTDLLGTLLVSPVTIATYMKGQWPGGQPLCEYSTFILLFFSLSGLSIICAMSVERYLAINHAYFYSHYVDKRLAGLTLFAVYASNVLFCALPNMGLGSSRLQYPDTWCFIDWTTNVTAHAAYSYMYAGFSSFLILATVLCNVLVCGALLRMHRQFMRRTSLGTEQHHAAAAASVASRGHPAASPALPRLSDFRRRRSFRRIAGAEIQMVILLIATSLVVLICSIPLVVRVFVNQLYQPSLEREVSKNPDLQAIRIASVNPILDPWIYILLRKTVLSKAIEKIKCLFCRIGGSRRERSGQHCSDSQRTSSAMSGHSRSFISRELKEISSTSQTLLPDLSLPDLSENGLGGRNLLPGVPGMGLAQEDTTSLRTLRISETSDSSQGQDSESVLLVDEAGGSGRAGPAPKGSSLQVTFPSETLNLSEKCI
Structure (SMILES),IC50 (PTRGER4 (EP4)),IC50 (PTGER2 (EP2))
"CCSc1cc(-c2cc(NCCn3c(C#N)cc4c(OC)cccc43)ncn2)ccc1C(=O)O [Example 952, 4-{6-[2-(2-Cyano-4-methoxy-indol-1-yl)-ethylamino]-pyrimidin-4-yl}-2-ethylsulfanyl-benzoic acid]",0.021 µM,0.005 µM
"CCSc1cc(-c2cc(NCCn3c(C#N)cc4c(OC)ccc(F)c43)ncn2)ccc1C(=O)O [Example 953, 4-{6-[2-(2-Cyano-7-fluoro-4-methoxy-indol-1-yl)-ethylamino]-pyrimidin-4-yl}-2-ethylsulfanyl-benzoic acid]",0.021 µM,0.005 µM
"CCSc1cc(-c2cc(NCCn3c(C#N)cc4c(OC)cc(F)cc43)ncn2)ccc1C(=O)O [Example 954, 4-{6-[2-(2-Cyano-6-fluoro-4-methoxy-indol-1-yl)-ethylamino]-pyrimidin-4-yl}-2-ethylsulfanyl-benzoic acid]",0.041 µM,0.015 µM
"CCOc1cc(-c2cc(NCCn3c(C#N)cc4c(C)cc(F)c(F)c43)ncn2)ccc1C(=O)O [Example 956, 4-{6-[2-(2-Cyano-6,7-difluoro-4-methyl-indol-1-yl)-ethylamino]-pyrimidin-4-yl}-2-ethoxy-benzoic acid]",0.037 µM,0.021 µM
"CCOc1cc(-c2cc(NCCn3c(C#N)cc4c(OC)cc(F)c(F)c43)ncn2)ccc1C(=O)O [Example 957, 4-{6-[2-(2-Cyano-6,7-difluoro-4-methoxy-indol-1-yl)-ethylamino]-pyrimidin-4-yl}-2-ethoxy-benzoic acid]",0.054 µM,0.056 µM
"CNc1cc(-c2cc(NCCn3c(C#N)cc4c(OC)cccc43)ncn2)ccc1C(=O)O [Example 958, 4-{6-[2-(2-Cyano-4-methoxy-indol-1-yl)-ethylamino]-pyrimidin-4-yl}-2-methylamino-benzoic acid]",0.018 µM,0.013 µM
"COCCOc1ccc(-c2cc(NCCn3c(C#N)cc4c(OC)ccc(F)c43)ncn2)cc1 [Example 963, 7-Fluoro-4-methoxy-1-(2-{6-[4-(2-methoxy-ethoxy)-phenyl]-pyrimidin-4-ylamino}-ethyl)-1H-indole-2-carbonitrile]",0.126 µM,0.194 µM
"COc1ccc(F)c2c1cc(C#N)n2CCNc1cc(-c2ccc(OCCO)cc2)ncn1 [Example 964, 7-Fluoro-1-(2-{6-[4-(2-hydroxy-ethoxy)-phenyl]-pyrimidin-4-ylamino}-ethyl)-4-methoxy-1H-indole-2-carbonitrile]",0.022 µM,0.041 µM
"COc1ccc(F)c2c1cc(C#N)n2CCNc1cc(-c2c[nH]c3cnccc23)ncn1 [Example 967, 7-Fluoro-4-methoxy-1-{2-[6-(1H-pyrrolo[2,3-c]pyridin-3-yl)-pyrimidin-4-ylamino]-ethyl}-1H-indole-2-carbonitrile]",0.017 µM,0.006 µM
"COc1ccc(F)c2c1cc(C#N)n2CCNc1cc(-c2ccc3c(c2)CNC(=O)N3)ncn1 [Example 970, 7-Fluoro-4-methoxy-1-{2-[6-(2-oxo-1,2,3,4-tetrahydro-quinazolin-6-yl)-pyrimidin-4-ylamino]-ethyl)-1H-indole-2-carbonitrile]",0.027 µM,0.031 µM
"COc1ccc(F)c2c1cc(C#N)n2CCNc1cc(-c2ccc(NC=O)cc2)ncn1 [Example 971, N-(4-{6-[2-(2-Cyano-7-fluoro-4-methoxy-indol-1-yl)-ethylamino]-pyrimidin-4-yl}-phenyl)-formamide]",0.024 µM,0.039 µM
"COc1ccc(F)c2c1cc(C#N)n2CCNc1cc(-c2ccc3oc(=O)n(C)c3c2)ncn1 [Example 973, 7-Fluoro-4-methoxy-1-{2-[6-(3-methyl-2-oxo-2,3-dihydro-benzooxazol-5-yl)-pyrimidin-4-ylamino]-ethyl}-1H-indole-2-carbonitrile]",0.049 µM,0.015 µM
"COc1ccc(F)c2c1cc(C#N)n2CCNc1cc(-c2ccnc(N3CCC3)c2)ncn1 [Example 975, 1-{2-[6-(2-Azetidin-1-yl-pyridin-4-yl)-pyrimidin-4-ylamino]-ethyl}-7-fluoro-4-methoxy-1H-indole-2-carbonitrile]",0.055 µM,0.044 µM
"COc1ccc(F)c2c1cc(C#N)n2CCNc1cc(-c2ccnc(N3CCCCC3)c2)ncn1 [Example 976, 7-Fluoro-4-methoxy-1-{2-[6-(3,4,5,6-tetrahydro-2H-[1,2′]bipyridinyl-4′-yl)-pyrimidin-4-ylamino]-ethyl}-1H-indole-2-carbonitrile]",0.317 µM,0.194 µM
"COc1ccc(F)c2c1cc(C#N)n2CCNc1cc(-c2c[nH]c3ncccc23)ncn1 [Example 978, 7-Fluoro-4-methoxy-1-{2-[6-(1H-pyrrolo[2,3-b]pyridin-3-yl)-pyrimidin-4-ylamino]-ethyl}-1H-indole-2-carbonitrile]",0.016 µM,0.001 µM
"COc1ccc(F)c2c1cc(C#N)n2CCNc1cc(-c2cnc3c(ccn3C)c2)ncn1 [Example 980, 7-Fluoro-4-methoxy-1-{2-[6-(1-methyl-1H-pyrrolo[2,3-b]pyridin-5-yl)-pyrimidin-4-ylamino]-ethyl}-1H-indole-2-carbonitrile]",0.012 µM,0.021 µM
"COc1ccc(F)c2c1cc(C#N)n2CCNc1cc(-c2ccc(CNS(C)(=O)=O)cc2)ncn1 [Example 983, N-(4-{6-[2-(2-Cyano-7-fluoro-4-methoxy-indol-1-yl)-ethylamino]-pyrimidin-4-yl}-benzyl)-methanesulfonamide]",0.244 µM,0.248 µM

# Further lines, results first:
IC50 (PTRGER4 (EP4)),IC50 (PTGER2 (EP2)),Structure (SMILES)
0.137 µM,0.003 µM,"COC(=O)c1ccc2cc(-c3cc(NCCn4c(C#N)cc5c(OC)ccc(F)c54)ncn3)[nH]c2c1 [Example 959, 2-{6-[2-(2-Cyano-7-fluoro-4-methoxy-indol-1-yl)-ethylamino]-pyrimidin-4-yl}-1H-indole-6-carboxylic acid methyl ester]"
0.004 µM,0.009 µM,"COc1ccc(F)c2c1cc(C#N)n2CCNc1cc(-c2cc3cc(C(=O)O)ccc3[nH]2)ncn1 [Example 960, 2-{6-[2-(2-Cyano-7-fluoro-4-methoxy-indol-1-yl)-ethylamino]-pyrimidin-4-yl}-1H-indole-5-carboxylic acid]"
0.034 µM,0.012 µM,"COc1ccc(F)c2c1cc(C#N)n2CCNc1cc(-c2cc3ccccc3[nH]2)ncn1 [Example 961, 7-Fluoro-1-{2-[6-(1H-indol-2-yl)-pyrimidin-4-ylamino]-ethyl}-4-methoxy-1H-indole-2-carbonitrile]"
0.011 µM,0.003 µM,"COC(=O)c1ccc2[nH]c(-c3cc(NCCn4c(C#N)cc5c(OC)ccc(F)c54)ncn3)cc2c1 [Example 962, 2-{6-[2-(2-Cyano-7-fluoro-4-methoxy-indol-1-yl)-ethylamino]-pyrimidin-4-yl}-1H-indole-5-carboxylic acid methyl ester]"
0.031 µM,0.014 µM,"COc1ccc(F)c2c1cc(C#N)n2CCNc1cc(-c2ccc3cc[nH]c3c2)ncn1 [Example 966, 7-Fluoro-1-{2-[6-(1H-indol-6-yl)-pyrimidin-4-ylamino]-ethyl)-4-methoxy-1H-indole-2-carbonitrile]"
0.015 µM,0.004 µM,"COc1ccc(F)c2c1cc(C#N)n2CCNc1cc(-c2c[nH]c3ccccc23)ncn1 [Example 968, 7-Fluoro-1-{2-[6-(1H-indol-3-yl)-pyrimidin-4-ylamino]-ethyl)-4-methoxy-1H-indole-2-carbonitrile]"
0.025 µM,0.056 µM,"COc1ccc(F)c2c1cc(C#N)n2CCNc1cc(-c2cccc3[nH]ccc23)ncn1 [Example 969, 7-Fluoro-1-{2-[6-(1H-indol-4-yl)-pyrimidin-4-ylamino]-ethyl)-4-methoxy-1H-indole-2-carbonitrile]"
0.018 µM,0.006 µM,"COc1ccc(F)c2c1cc(C#N)n2CCNc1cc(-c2ccc3[nH]c(=O)oc3c2)ncn1 [Example 972, 7-Fluoro-4-methoxy-1-{2-[6-(2-oxo-2,3-dihydro-benzooxazol-6-yl)-pyrimidin-4-ylamino]-ethyl}-1H-indole-2-carbonitrile]"
0.084 µM,0.036 µM,"COc1ccc(F)c2c1cc(C#N)n2CCNc1cc(-c2ccc(C(=O)O)cc2)ncn1 [Example 974, 4-{6-[2-(2-Cyano-7-fluoro-4-methoxy-indol-1-yl)-ethylamino]-pyrimidin-4-yl}-benzoic acid]"
0.006 µM,0.005 µM,"COc1ccc(F)c2c1cc(C#N)n2CCNc1cc(-c2ccc3[nH]ncc3c2)ncn1 [Example 977, 7-Fluoro-1-{2-[6-(1H-indazol-5-yl)-pyrimidin-4-ylamino]-ethyl}-4-methoxy-1H-indole-2-carbonitrile]"
0.015 µM,0.004 µM,"COc1ccc(F)c2c1cc(C#N)n2CCNc1cc(-c2cnc3[nH]ccc3c2)ncn1 [Example 979, 7-Fluoro-4-methoxy-1-{2-[6-(1H-pyrrolo[2,3-b]pyridin-5-yl)-pyrimidin-4-ylamino]-ethyl}-1H-indole-2-carbonitrile]"
0.058 µM,0.059 µM,"COc1cc2[nH]ncc2cc1-c1cc(NCCn2c(C#N)cc3c(OC)ccc(F)c32)ncn1 [Example 981, 7-Fluoro-4-methoxy-1-{2-[6-(6-methoxy-1H-indazol-5-yl)-pyrimidin-4-ylamino]-ethyl}-1H-indole-2-carbonitrile]"
0.003 µM,0.018 µM,"CCNC(=O)Nc1ccc(-c2cc(NCCn3c(C#N)cc4c(OC)ccc(F)c43)ncn2)cc1OC [Example 982, 1-(4-{6-[2-(2-Cyano-7-fluoro-4-methoxy-indol-1-yl)-ethylamino]-pyrimidin-4-yl}-2-methoxy-phenyl)-3-ethyl-urea]"
